According to patent US9814709B2, “Bruton's tyrosine kinase inhibitor” (HEFEI INSTITUTES OF PHYSICAL SCIENCE, CHINESE ACADEMY OF …, priority 2014, dated 2017):

Key:
[1] = target: T1, BTK WT protein (Homo sapiens, UniProt Q06187); assay: Btk acellular kinase assay, BTK WT protein purified from transfected 293T cells; assay type: biochemical; conditions: 100 μM ATP
T1 construct: made in house; host or cells: 293T cells
Experimental: The BTK wild-type plasmid and the BTK mutant plasmid (C481S) were respectively transfected into 293T cells (purchased from ATCC), and the resultant cells were marked as BTK WT 293T cells and BTK C481S 293T cells, respectively. After cell culture for 2 days, the cells were harvested and purified to give BTK WT and BTK C481S proteins. The compounds of formula (I) were added to the BTK WT and BTK C481S proteins at different concentrations of 3 nM, 10 nM, 30 nM, 100 nM, 300 nM and 1000 nM, respectively, and reacted at room temperature for 30 min, followed by the addition of 100 μM ATP at 37° C. and reacting for 20 min.

[2] = system: AML cell line MOLM13; assay: Cancer cell growth, Cell Titer-Glo; assay type: cell-based; conditions: Homo sapiens, MOLM-13; MOLM13, 72 hrs; read-out: Half inhibitory concentration IC50
Source text: (§1) We further assessed the selectivity of Compound 1 to inhibit the proliferation of cancer cells, by testing the effect of Btk inhibitor on the growth of cancer cells. In the example, we used B-lymphoma cell Ramos, cervical cancer cells HeLa, prostate cancer cells DU145, RV-1 and C4-2, colon cancer cells HCT116, blood cancer cells K562, B-cell lymphoma cells U2932, diffuse large B-cell lymphoma cells OCI-LY10, diffuse histiocytic lymphoma cells SU-DHL-2, diffuse large B-cell lymphoma cells TMD8, human non-small cell lung cancer cells H1975 (expressing EGFR L858R/T790M double mutant gene), human lung adenocarcinoma cells A549 (expressing wild-type EGFR gene), human non-small cell lung cancer cells H460 (expressing wild-type EGFR gene), mantel cell lymphoma (MCL) cells Z-138, EB virus infected human peripheral lymphocyte cells JVM-2, MCL cells REC-1, leukemia cells AML-3, acute promyelocytic leukemia cell line NB-4(Lu+), MDS-RAEB (myelodysplastic syndrome-excessive blasts) cell line SKM-1 human leukemia cell Nomo-1, human B-cell leukemia cell line NALM6, human leukocyte leukemia cells HEL, human T-cell lymphoma cells PF-382, acute myelocytic leukemia (AML) cell line MOLM14, AML cell line MOLM13, human Burkitt's lymphoma cells Namalwa, mouse pro-B cells BaF3, all of where were purchased from ATCC. Also used were mouse TEL-EGFR-BaF3 (stably expressing TEL-EGFR activated kinase), mouse TEL-EGFR/T790-BaF3 cells (stably expressing TEL-EGFR-T790M activated mutant kinase), mouse TEL-EGFR/L858R-BaF3 cells (stably expressing TEL-EGFR-L858R activated mutant kinase), mouse TEL-EGFR/T790/L858R-BaF3 (stably expressing TEL-EGFR-T790M/L858R activated mutant kinase), mouse TEL-BMX-BaF3 cells (stably expressing TEL-BMX activated kinase), mouse TEL-JAK1-BaF3 cells (stably expressing TEL-JAK1 activated kinase), mouse TEL-JAK2-BaF3 cells (stably expressing TEL-JAK2 activated kinase), mouse TEL-JAK3-BaF3 cells (stably expressing TEL-JAK3 activated kinase), where were all established by our laboratory via the following method: the kinase domain sequences of human EGFR, BMX, JAK1, JAK2, JAK3 were amplified respectively by PCR, and these kinase were inserted into the MSCV-Puro vectors with N-terminal TEL segment (Clontech); if there was a mutation, the mutation of the corresponding site was conducted by Site-Directed Mutagenesis kit (Stratagene); the resultants were stably transfected into mouse BaF3 cells by the means of retrovirus, and the IL-3 growth factors were removed, and eventually the EGFR, BMX, JAK1, JAK2, JAK3-transferred protein dependent cell lines were obtained.
(§2) In the example, different concentrations (0.000508 μM, 0.00152 μM, 0.00457 μM, 0.0137 μM, 0.0411 μM, 0.123 μM, 0.370 μM, 1.11 μM, 3.33 μM, 10 μM) of Compound 1 and Compound 19 were added into above cells, and were incubated for 72 hrs. The number of viable cells was determined by quantitating ATP in viable cells using Cell Titer-Glo® (Promega, U.S.) chemiluminescence cell viability assay kit.

[3] = system: EB virus infected human peripheral lymphocyte cells JVM-2; assay: Cancer cell growth, Cell Titer-Glo; assay type: cell-based; conditions: JVM-2, 72 hrs, read-out: Half inhibitory concentration IC50
Source text: as §1, §2

[4] = system: MCL cells REC-1; assay: Cancer cell growth, Cell Titer-Glo; assay type: cell-based; conditions: Homo sapiens, Rec1; REC-1, 72 hrs; read-out: Half inhibitory concentration IC50
Source text: as §1, §2

[5] = system: MDS-RAEB cell line SKM-1; assay: Cancer cell growth, Cell Titer-Glo; assay type: cell-based; conditions: Homo sapiens; SKM-1, 72 hrs; read-out: Half inhibitory concentration IC50
Source text: as §1, §2

[6] = system: acute myelocytic leukemia (AML) cell line MOLM14; assay: Cancer cell growth, Cell Titer-Glo; assay type: cell-based; conditions: Homo sapiens, MOLM-14; MOLM14, 72 hrs; read-out: Half inhibitory concentration IC50
Source text: as §1, §2

[7] = system: blood cancer cells K562; assay: Cancer cell growth, Cell Titer-Glo; assay type: cell-based; conditions: Homo sapiens; K562, 72 hrs; read-out: Half inhibitory concentration IC50
Source text: as §1, §2

[8] = system: cervical cancer cells HeLa; assay: Cancer cell growth, Cell Titer-Glo; assay type: cell-based; conditions: Homo sapiens, 72 hrs, read-out: Half inhibitory concentration IC50
Source text: as §1, §2

[9] = system: colon cancer cells HCT116; assay: Cancer cell growth, Cell Titer-Glo; assay type: cell-based; conditions: Homo sapiens, HCT-116; HCT116, 72 hrs; read-out: Half inhibitory concentration IC50
Source text: as §1, §2

[10] = system: diffuse large B-cell lymphoma cells OCI-LY10; assay: Cancer cell growth, Cell Titer-Glo; assay type: cell-based; conditions: Homo sapiens; OCI-LY10, 72 hrs; read-out: Half inhibitory concentration IC50
Source text: as §1, §2

[11] = system: human T-cell lymphoma cells PF-382; assay: Cancer cell growth, Cell Titer-Glo; assay type: cell-based; conditions: PF-382, 72 hrs, read-out: Half inhibitory concentration IC50
Source text: as §1, §2

[12] = system: human lung adenocarcinoma cells A549 (expressing wild-type EGFR gene); assay: Cancer cell growth, Cell Titer-Glo; assay type: cell-based; conditions: A549, 72 hrs, read-out: Half inhibitory concentration IC50
Source text: as §1, §2

[13] = system: leukemia cells AML-3; assay: Cancer cell growth, Cell Titer-Glo; assay type: cell-based; conditions: AML3; AML-3, 72 hrs; read-out: Half inhibitory concentration IC50
Source text: as §1, §2

[14] = system: prostate cancer cells C4-2; assay: Cancer cell growth, Cell Titer-Glo; assay type: cell-based; conditions: C4-2, 72 hrs; read-out: Half inhibitory concentration IC50
Source text: as §1, §2

[15] = system: prostate cancer cells DU145; assay: Cancer cell growth, Cell Titer-Glo; assay type: cell-based; conditions: Homo sapiens, DU-145; DU145, 72 hrs; read-out: Half inhibitory concentration IC50
Source text: as §1, §2

[16] = system: prostate cancer cells RV-1; assay: Cancer cell growth, Cell Titer-Glo; assay type: cell-based; conditions: RV-1, 72 hrs; read-out: Half inhibitory concentration IC50
Source text: as §1, §2

T1 sequence (Q06187 whole entry): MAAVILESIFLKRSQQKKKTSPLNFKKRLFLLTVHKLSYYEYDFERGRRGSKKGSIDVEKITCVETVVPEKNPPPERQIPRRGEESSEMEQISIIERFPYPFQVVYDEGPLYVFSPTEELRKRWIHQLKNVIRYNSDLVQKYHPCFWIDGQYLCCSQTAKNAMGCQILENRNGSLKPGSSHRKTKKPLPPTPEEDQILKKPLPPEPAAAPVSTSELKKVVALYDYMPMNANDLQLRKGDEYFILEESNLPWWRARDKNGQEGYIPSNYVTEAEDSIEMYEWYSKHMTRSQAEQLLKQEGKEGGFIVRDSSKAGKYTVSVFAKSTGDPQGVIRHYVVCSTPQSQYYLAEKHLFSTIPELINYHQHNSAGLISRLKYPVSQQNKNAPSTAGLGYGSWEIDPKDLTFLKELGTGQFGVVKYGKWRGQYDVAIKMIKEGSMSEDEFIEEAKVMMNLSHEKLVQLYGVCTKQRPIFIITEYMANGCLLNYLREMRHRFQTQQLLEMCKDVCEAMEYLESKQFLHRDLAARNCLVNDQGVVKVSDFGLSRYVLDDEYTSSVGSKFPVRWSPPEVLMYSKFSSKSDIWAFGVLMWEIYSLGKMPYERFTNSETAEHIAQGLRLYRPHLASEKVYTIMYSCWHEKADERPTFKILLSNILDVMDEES

Row | inhibitory effect on BTK WT ([1]; 3-1000 nM) | IC50 [2] [nM] | IC50 [3] [µM] | IC50 [4] [nM] | IC50 [5] [nM] | IC50 [6] [nM] | IC50 [7] [µM] | IC50 [8] [µM] | IC50 [9] [µM] | IC50 [10] [µM] | IC50 [11] [µM] | IC50 [12] [µM] | IC50 [13] [µM] | IC50 [14] [µM] | IC50 [15] [µM] | IC50 [16] [µM] | IC50 ([1]; 30 min room temperature preincubation, 37° C., 20 min) [nM] | Structure (SMILES)
1 | no inhibitory effect | > 10000 | > 10 | > 10000 | > 10000 | > 10000 | > 10 | > 10 | > 10 | > 10 | > 10 | > 10 | > 10 | > 10 | > 10 | > 10 |  | CCC(=O)Nc1cc(-n2c(=O)ccc3cnc4ccc(-n5cccn5)cc4c32)ccc1C [Compound 19, N-(2-methyl-5-(2-oxo-9-(1H-pyrazol-1-yl)benzo[H][1,6]naphthyridin-1(2H)-yl)phenyl) propionamide]
2 |  | 590 | 3.4 | 1600 | 1500 | 1500 | > 10 | > 10 | > 10 | > 10 | 3.49 | 3.76 | 7.3 | > 10 | > 10 | > 10 | 56 | C=CC(=O)Nc1cc(-n2c(=O)ccc3cnc4ccc(-n5cccn5)cc4c32)ccc1C [Compound 1, N-(2-methyl-5-(2-oxo-9-(1H-pyrazol-1-yl)benzo[H][1,6]naphthyridin-1(2H)-yl)phenyl)acrylamide]
